Patent publication US12528777B2, “Quinazolinones derivatives for treatment of non-alcoholic fatty liver disease, preparation and use thereof” (Council of Scientific and Industrial Research, priority 2020, dated 2026)
Entries after “also recorded” stand apart in the source; their conditions may differ.

How the values were obtained:
[1] = test system: ATGL; assay: qPCR of ATGL mRNA in HepG2 cells; format: cell-based; conditions: 5 μM and 10 μM, 24 hours
Protocol: (§1) Ubiquitination of ATGL by COP1 is a post translational event, therefore, it is expected that the mRNA level of ATGL will not change compared to control upon treatment with the compound of the present disclosure which inhibit COP1. To establish this, HepG2 cells were treated with 5 μM and 10 μM of the compounds 9, 107, 171, 179 and 73 for 24 hours. RNA was isolated using TRIzol reagent followed by chloroform treatment and precipitation with isopropanol. cDNA was obtained from the isolated RNA and qPCR was carried out using SyBr green reagent. COP1 and ATGL gene expression levels were checked. 18s was used as control. FIG. 8 illustrates that compounds exert no effect on the mRNA levels of ATGL.

[2] = test system: COP1; assay: qPCR of COP1 mRNA in HepG2 cells; format: cell-based; conditions: 5 μM and 10 μM, 24 hours
Protocol: as §1

[3] = Lipophilicity assay (octanol/buffer); format: physicochemical; conditions: for logD: n-octanol / 10 mM sodium phosphate buffer pH 7.4, LC-UV; for Lipophilicity class from Log D: pH 7.4
Protocol: 1.56 g NaH2PO4·2H2O was dissolved in 0.5 L water in a 1 L beaker. After adjusting pH to 7.4 using NaOH solution, the volume was made up to 1 L. Equal volumes of sodium phosphate buffer (10 mM, pH 7.4) and n-octanol were added to a separation funnel and mixed thoroughly by shaking and inverting the funnel several times. The two layers were allowed to separate for overnight and then dispensed in two separate glass bottles. 10 mM stock solution was prepared in 100% DMSO and stored at 4° C. 495 μL of organic phase (1-octanol) was added to each well of a 2 mL deep well plate, followed by 495 μL of buffer and 10 μL of test compound was added. The plate was incubated for 3 hr at room temperature on a plate shaker at 500 rpm. After incubation, the samples were allowed to equilibrate for 20 min and then centrifuged at 4000 rpm for 30 min for complete phase separation and analysed by LC-UV.
Log D=Log (area of octanol/area of buffer)

[4] = Plasma stability assay; format: in vitro ADME, human; conditions: for Mean % remaining at 2 hrs in human Plasma: 1 μM, 37° C., 120 min, LC-MS/MS; for Plasma stability: human plasma, after 2 hours, with respect to Propantheline
Protocol: 1 mM Stock of test compound was prepared from 10 mM initial stock solution of compounds by diluting 10 μL of 10 mM stock with 90 μL of DMSO. Then 10 μL of 1 mM stock was diluted with 90 µL of DMSO to give 100 μM concentration. The frozen plasma was thawed at room temperature and centrifuged at 1400 rpm at 4° C., for 15 minutes. Approximately […] of the clear supernatant fraction was transferred to a separate tube and was used for the assay. Final working stock of 1 μM was prepared by diluting 3 μL of 100 μM with 297 μL of plasma. Plasma containing the test compound was incubated for 120 min at 37° C. in shaker with 500 rpm. 50 μL of aliquot of sample at 0, 15, 30, 60 and 120 minutes were precipitated with 150 μL of acetonitrile containing internal standard and centrifuged at 4000 rpm at 4° C. for 20 minutes. 120 μL of supernatant was diluted with 120 μL of water and analyzed by LC-MS/MS.

[5] = target: COP1 (Homo sapiens, UniProt Q8NHY2); assay: In vitro ubiquitination of purified ATGL by COP1 with UbcH6; format: biochemical; set-up: host or cells: HEK293A; conditions: 5 μM compound, COP1 overexpressing HEK293A lysate
From the text: Purification of ATGL protein and obtaining COP1 overexpressing cell lysate: Myc-ATGL plasmid and Myc-DDK-COP1 plasmid ([…] each) were transfected separately in cultured HEK293A cells with the help of Lipofectamine2000 (Invitrogen). Cells were harvested in Lysis Buffer and protein solution was extracted as described previously. The Lysis Buffer used to harvest COP1 overexpressing cells had 0.1% SDS supplemented in it. The concentration of protein was estimated using Bradford assay. For source of E3 ligase, the total cell lysate from COP1 overexpressing HEK293A cells were used.
For purification of Myc-ATGL: 1 ml of Ni^2+-NTA resin (Roche) was taken in a 15 ml centrifuge tube and centrifuged at 2000 RPM for 5 minutes. The upper ethanol layer was discarded and the pellet was washed in 1×PBS twice to remove any remaining traces of ethanol. The pellet was finally washed once with Lysis Buffer for equilibration. […] The tube was incubated overnight at 4° C. in a rotary shaker.
The next day, the solution was centrifuged at 2000 RPM for 10 minutes and the supernatant collected. Lysis Buffer (containing protease inhibitor cocktail twice the previous concentration) was used for washing the beads twice to remove non-specific and unattached reactants in a stringent condition. The beads were finally washed once with 1×PBS containing the same amount of protease inhibitor for equilibration. 300 μl of 500 mM Imidazole (Sigma Aldrich) solution in 1×PBS was added to the resin for elution of ATGL and centrifuged at 2000 RPM for 30 minutes and the eluted protein was collected. To the separated resin, 300 μl of 1M Imidazole solution was added and centrifuged at 2000 RPM for 30 minutes and the second elute was collected. […] of eluted protein from each elution was boiled with 5 μl of Laemmli's buffer at 95° C. for 10 minutes and run in 10% SDS-PAGE gel. The supernatant collected before elution of ATGL and the proteins still attached to the Ni^2+-NTA resin were also run in the SDS-PAGE. The resolved proteins were subsequently transferred on PVDF membranes and probed with anti-myc primary antibody to check the presence of purified ATGL in the elute. Also to check the yield of the purified protein, 40 μl of the elute was run in 10% SDS page and stained with Coomassie Brilliant Blue solution followed by destaining with methanol, glacial acetic acid and water in a 50:40:10 ratio.
For identifying the E2 ubiquitin-conjugating enzyme responsible for ATGL ubiquitination by COP1, an in vitro ubiquitinylation kit (Enzo Life Sciences) was used. The assay was reconstituted as per manufacturer's protocol with the panel of E2 conjugating enzymes provided and other required components at the mentioned concentrations. The reaction was carried out for 6 hours following which it was quenched as per directions with the provided 2× non-reducing gel buffer and then analysed by western blotting.
Having identified the E2 ubiquitin conjugating enzyme as UbcH6, ubiquitination assay was set up in vitro as described previously with 5 μM of the compound 9, 107, 171, 179 and 73 followed by quenching and analysis by western blotting.
Ubiquitination of a target protein is carried out in a three step process involving three different enzymes: E1 ubiquitin activating enzyme, E2 ubiquitin conjugating enzyme and E3 ubiquitin ligase. In humans, there is only one E1 ubiquitin activating enzyme and multiple E2 and E3 enzymes. […]

[6] = test system: ATGL; assay: Western blot of ATGL level in HepG2 cells; format: cell-based; set-up: key to Increase in ATGL level: + = slight or in insignificant; ++ = Moderate; +++ and ++++ = active; +++ and ++++ = active; +++++ = very active; conditions: for Increase in ATGL level: HepG2 cells, score
In short: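 HepG2 cells were treated with compound 24 h (10 μM screen; 50 nM–5 μM dose series) and lysed. 30 μg protein was western blotted for ATGL, with actin as loading reference. ATGL increase was expressed as percent of the 1.6-fold siCOP1 maximum and plotted against log concentration for EC50.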

[7] = test system: HepG2 cells; assay: Confocal microscopy: lipid droplets in oleate induced HepG2 cells; format: cell-based; set-up: key to Reduction in Lipid Droplets: + = slight or in insignificant; ++ = Moderate; +++ and ++++ = active; +++ and ++++ = active; +++++ = very active; conditions: oleate induced HepG2 cells, score
In short: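 HepG2 cells were loaded with 250 μM oleate and given compound in DMSO (10 μM screen; 10 nM–5 μM dose series) for 24 h; BSA as negative control. Lipid droplets stained with BODIPY/Hoechst, imaged confocally; mean droplets per cell counted over ~20 cells versus oleate-only cells.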

[8] = Metabolic stability using Human Liver Microsomes; format: in vitro ADME; conditions: for % QH (Well stirred model): NADPH, 0-60 min
Protocol: 1 mM stock solution of test compound was prepared in DMSO and diluted with Acetonitrile:Water (1:1) to get a 100 μM working concentration. 100 mL of Milli Q water was added to K2HPO4 (1.398 g) and KH2PO4 (0.27 g) to get final pH 7.4 solution of potassium phosphate buffer. […] The above mixture was pre incubated for 15 minutes at 37° C. After pre incubation, 32.5 μL of the mixture was added to 17.5 μL of buffer, this was incubated for 60 minutes at 37° C. [60 min Without Cofactor (NADPH)]. 16.25 μL of the pre incubated mixture and 8.75 μL of cofactor was added to 150 μL of acetonitrile containing internal standard [0 min Sample]. 62 μL of cofactor was added to remaining pre incubation mixture [Incubation mixture]. 25 μL of incubation mixture at 0, 5, 15, 30, 60 min and 60 min without cofactor were precipitated with 150 μL of acetonitrile containing internal standard, vortexed and centrifuged at 4000 rpm at 4° C. for 20 minutes. 120 μL of supernatant was diluted with 120 μL of water and analyzed by LC-MS/MS [sample preparation].

[9] = test system: HepG2 cells; assay: Basal oxygen consumption rate (OCR) by Seahorse; format: cell-based; conditions: 5 μM, 24 hours, hydrochloride
Protocol: HepG2 cells were plated in Seahorse cell culture microplates (24 well). Cells were treated with 5 μM of compounds 9, 107, 238 and 238a for 24 hours. The calibrator plate was dipped in the calibrator solution and incubated overnight at 37° C. in a non-CO2 incubator. The next day, cells were washed with Agilent Seahorse XF Base Medium, Minimal DMEM twice, making sure to leave at least 50 μl of media in the wells and incubated for 1 hour at 37° C. in a non-CO2 incubator. Following this, oxygen consumption rate was measured in the Seahorse instrument. FIG. 12 illustrates basal oxygen consumption rate of compounds 9, 107, 238a, and 238.

Chain of COP1 (Homo sapiens, UniProt Q8NHY2) (Q8NHY2 whole entry): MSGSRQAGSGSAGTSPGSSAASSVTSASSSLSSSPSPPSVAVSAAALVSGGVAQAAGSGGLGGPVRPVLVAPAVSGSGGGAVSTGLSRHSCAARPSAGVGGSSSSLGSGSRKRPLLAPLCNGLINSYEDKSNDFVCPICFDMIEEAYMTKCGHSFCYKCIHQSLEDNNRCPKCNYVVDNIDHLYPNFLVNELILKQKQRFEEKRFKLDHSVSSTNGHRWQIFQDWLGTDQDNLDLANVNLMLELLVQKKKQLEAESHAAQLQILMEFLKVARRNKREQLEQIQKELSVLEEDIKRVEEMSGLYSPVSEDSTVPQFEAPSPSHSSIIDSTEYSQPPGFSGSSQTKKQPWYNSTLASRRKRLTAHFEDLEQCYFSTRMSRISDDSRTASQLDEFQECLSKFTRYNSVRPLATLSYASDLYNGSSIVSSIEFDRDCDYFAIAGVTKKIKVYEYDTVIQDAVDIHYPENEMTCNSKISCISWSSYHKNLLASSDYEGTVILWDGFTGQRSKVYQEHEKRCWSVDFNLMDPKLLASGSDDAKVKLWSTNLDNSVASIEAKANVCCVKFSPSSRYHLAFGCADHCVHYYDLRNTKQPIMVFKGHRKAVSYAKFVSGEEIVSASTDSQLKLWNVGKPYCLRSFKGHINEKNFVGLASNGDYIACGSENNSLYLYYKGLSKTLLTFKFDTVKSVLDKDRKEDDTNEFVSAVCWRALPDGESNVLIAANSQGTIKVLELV

logD [3]	Lipophilicity class from Log D [3]	Mean % remaining at 2 hrs in human Plasma [4]	Plasma stability [4]	Clearance class from % QH [8]	% QH (Well stirred model) [8]	EC50 ([6]; fold increase of ATGL by densitometry, as % of 1.6 fold maximum with siCOP1, doses 10-5000 nM, read-out: EC50 (in-vitro))	Structure (SMILES)	ATGL mRNA level [1]	COP1 mRNA level [2]	ATGL ubiquitination by COP1 in vitro [5]	Increase in ATGL level ([6]; western blot)	Reduction in Lipid Droplets [7]	Basal oxygen consumption rate [9]	ATGL level in HepG2 cells ([6]; western blot, 24 hours, 10 μM screening or 50 nM-5 μM dose dependent)
1.95	ideal lipophilicity	10.3%	lower plasma stability				COCCn1cnc2ccc(NC(=O)Nc3cccc(C(C)=O)c3)c(Br)c2c1=O [Compound 73, 1-(3-acetylphenyl)-3-(5-bromo-3-(2-methoxyethyl)-4-oxo-3,4-dihydroquinazolin-6-yl)urea]	no significant changes	no significant changes	effective in reducing the ubiquitination of ATGL by COP1				
							CCC(COC)n1cnc2ccc(NC(=O)Nc3cccc(C(C)=O)c3)cc2c1=O (stereo not shown) [Compound 171, 1-(3-acetylphenyl)-3-(3-(1-methoxybutan-2-yl)-4-oxo-3,4-dihydroquinazolin-6-yl)urea]	no significant changes	no significant changes	effective in reducing the ubiquitination of ATGL by COP1	+++			
3.01	ideal lipophilicity	67.2%	good plasma stability	lower clearance	29.8%		CC(=O)c1cccc(NC(=O)Nc2ccc3ncn(CC(=O)Nc4ccccc4F)c(=O)c3c2)c1 [Compound 253, 2-(6-(3-(3-acetylphenyl)ureido)-4-oxoquinazolin-3 (4H)-yl)-N-(2-fluorophenyl)acetamide]				+	++		
							COCCn1c(CN2CCCCC2)nc2ccc(NC(=O)Nc3cccc(C(C)=O)c3)cc2c1=O.Cl [Compound 238a, 1-(3-acetylphenyl)-3-(3-(2-methoxyethyl)-4-oxo-2-(piperidin-1-ylmethyl)-3,4-dihydroquinazolin-6-yl)urea hydrochloride]						higher oxygen consumption rate compared to control; also recorded: increase in the basal OCR values	
2.48	ideal lipophilicity	110.3%	good plasma stability	medium clearance	38.8%	199 nM	COCCn1c(-c2ccccn2)nc2ccc(NC(=O)Nc3cccc(C(C)=O)c3)cc2c1=O [Compound 211, 1-(3-acetylphenyl)-3-(3-(2-methoxyethyl)-4-oxo-2-(pyridin-2-yl)-3,4-dihydroquinazolin-6-yl)urea]							increased ATGL level
